# Measured values: publication PMC11579512, “Deoxybouvardin-glucoside induces apoptosis in non-small cell lung cancer cells by targeting EGFR/MET and AKT signaling pathway” (EXCLI Journal, 2024)
# Tests used:
# Format in all cases: cell-based, human
# caspase-3 = test: Immunoblot caspase-3 in HCC827 and HCC827GR cells; details: for caspase3 protein Ratio: DBG 0 nM = 1.00
# Method: (§1) HaCaT cells were grown in DMEM, whereas HCC827 and HCC827GR cells were grown in RPMI 1640. All culture media were supplemented with FBS (10 %) and P/S (1 %), and the cells were grown at 37 °C in 5 % CO2.
# Cells were lysed in RIPA buffer, and protein concentration was determined using a Bio-Rad DC Protein Assay kit (Bio-Rad, Hercules, CA, USA). Protein samples from the cell lysates were resolved by sodium dodecyl sulfate-polyacrylamide gel electrophoresis and then transferred onto polyvinylidene fluoride membranes. The membranes were blocked with 3 % or 5 % skim milk and then incubated at 4 °C overnight with the indicated primary antibodies, followed by the corresponding horseradish peroxidase-conjugated secondary antibodies at RT for 2 h. Protein bands were visualized using western blotting luminol reagent solution and ImageQuant LAS 500 (GE Healthcare, Uppsala, Sweden). The density of the bands was quantified using ImageJ software (NIH, Bethesda, MD, USA).
# HCC827GR cells = test: Multi-caspase assay, HCC827GR; design: Caspase+ cells / Total Caspase+ cells / dead cells (multi-caspase assay) / Live cells (multi-caspase assay): unit not given here; details: for cells with activated caspases: 48 h, background 6.43 %; for Caspase+ cells / Caspase+/dead cells / Live cells (multi-caspase assay) / Total Caspase+ cells / dead cells (multi-caspase assay): HCC827GR
# Method: as §1
# HCC827 cells [1] = test: Soft agar anchorage-independent growth, HCC827; details: 2 weeks
# Method: The anchorage-independent cell growth assay was performed in 6-well plates with dual agar layers containing 0.6 % agar (lower layer) and 0.3 % agar (upper layer) supplemented with BME, 2 mM L-glutamine, 5 μg/ml gentamicin, and 10 % FBS. After 2 weeks of incubation, the number of colonies was assessed using a microscope (Leica, Wetzlar, Germany), and the mean colony area was analyzed using i-Solution ^TM software (Vancouver, BC, Canada).
# HCC827 cells [2] = test: Cell cycle distribution (Muse, PI), HCC827; details: 48 h
# Method: as §1
# Cell cycle distribution analysis was performed using a Muse™ Cell Cycle Kit (MCH100106, Merck Millipore, Billerica, MA) based on propidium iodide (PI) staining. The cells were collected, fixed in 70 % ethanol overnight at -20 °C, and then stained with a Muse™ Cell Cycle Reagent at RT for 30 min in the dark. The cell cycle distribution was measured using a Muse™ Cell Analyzer (Merck Millipore).
structure (smiles),measurement,setting,value
"COc1ccc(C[C@H]2C(=O)N[C@@H](C)C(=O)N(C)[C@H]3Cc4ccc(cc4)Oc4cc(ccc4O[C@@H]4O[C@H](CO)[C@@H](O)[C@H](O)[C@H]4O)C[C@@H](C(=O)N[C@H](C)C(=O)N[C@@H](C)C(=O)N2C)N(C)C3=O)cc1 [DBG, deoxybouvardin glucoside]",caspase3 protein/actin,"caspase-3; HCC827, DBG 3 nM, DBG 0 nM 0.88",0.62
same,caspase3 protein Ratio,"caspase-3; HCC827, DBG 3 nM",0.71
same,caspase3 protein/actin,"caspase-3; HCC827, DBG 6 nM, DBG 0 nM 0.88",0.55
same,caspase3 protein Ratio,"caspase-3; HCC827, DBG 6 nM",0.62
same,caspase3 protein/actin,"caspase-3; HCC827, DBG 12 nM, DBG 0 nM 0.88",0.14
same,caspase3 protein Ratio,"caspase-3; HCC827, DBG 12 nM",0.16
same,caspase3 protein/actin,"caspase-3; HCC827GR, DBG 3 nM, DBG 0 nM 0.55",0.60
same,caspase3 protein Ratio,"caspase-3; HCC827GR, DBG 3 nM",1.11
same,caspase3 protein/actin,"caspase-3; HCC827GR, DBG 6 nM, DBG 0 nM 0.55",0.48
same,caspase3 protein Ratio,"caspase-3; HCC827GR, DBG 6 nM",0.87
same,caspase3 protein/actin,"caspase-3; HCC827GR, DBG 12 nM, DBG 0 nM 0.55",0.30
same,caspase3 protein Ratio,"caspase-3; HCC827GR, DBG 12 nM",0.54
same,level of whole caspase-3,"caspase-3; HCC827 and HCC827GR, DBG",decreased
same,cells with activated caspases,HCC827GR cells; DBG 3 nM,23.91%
same,cells with activated caspases,HCC827GR cells; DBG 6 nM,31.13%
same,cells with activated caspases,HCC827GR cells; DBG 12 nM,33.34%
same,Caspase+ cells,"HCC827GR cells; DBG 3 nM, mean of samples 1-3",8.71
same,Caspase+/dead cells,"HCC827GR cells; DBG 3 nM, mean of samples 1-3",15.20
same,Live cells (multi-caspase assay),"HCC827GR cells; DBG 3 nM, mean of samples 1-3",74.50
same,Total Caspase+ cells,"HCC827GR cells; DBG 3 nM, mean of samples 1-3",23.91
same,dead cells (multi-caspase assay),"HCC827GR cells; DBG 3 nM, mean of samples 1-3",1.60
same,Caspase+ cells,"HCC827GR cells; DBG 3 nM, sample 1",8.78
same,Caspase+/dead cells,"HCC827GR cells; DBG 3 nM, sample 1",15.95
same,Live cells (multi-caspase assay),"HCC827GR cells; DBG 3 nM, sample 1",73.93
same,Total Caspase+ cells,"HCC827GR cells; DBG 3 nM, sample 1",24.73
same,dead cells (multi-caspase assay),"HCC827GR cells; DBG 3 nM, sample 1",1.34
same,Caspase+ cells,"HCC827GR cells; DBG 3 nM, sample 2",8.19
same,Caspase+/dead cells,"HCC827GR cells; DBG 3 nM, sample 2",14.57
same,Live cells (multi-caspase assay),"HCC827GR cells; DBG 3 nM, sample 2",75.49
same,Total Caspase+ cells,"HCC827GR cells; DBG 3 nM, sample 2",22.76
same,dead cells (multi-caspase assay),"HCC827GR cells; DBG 3 nM, sample 2",1.75
same,Caspase+ cells,"HCC827GR cells; DBG 3 nM, sample 3",9.16
same,Caspase+/dead cells,"HCC827GR cells; DBG 3 nM, sample 3",15.07
same,Live cells (multi-caspase assay),"HCC827GR cells; DBG 3 nM, sample 3",74.07
same,Total Caspase+ cells,"HCC827GR cells; DBG 3 nM, sample 3",24.23
same,dead cells (multi-caspase assay),"HCC827GR cells; DBG 3 nM, sample 3",1.70
same,Caspase+ cells,"HCC827GR cells; DBG 6 nM, mean of samples 1-3",7.98
same,Caspase+/dead cells,"HCC827GR cells; DBG 6 nM, mean of samples 1-3",23.15
same,Live cells (multi-caspase assay),"HCC827GR cells; DBG 6 nM, mean of samples 1-3",67.79
same,Total Caspase+ cells,"HCC827GR cells; DBG 6 nM, mean of samples 1-3",31.13
same,dead cells (multi-caspase assay),"HCC827GR cells; DBG 6 nM, mean of samples 1-3",1.08
same,Caspase+ cells,"HCC827GR cells; DBG 6 nM, sample 1",7.79
same,Caspase+/dead cells,"HCC827GR cells; DBG 6 nM, sample 1",23.36
same,Live cells (multi-caspase assay),"HCC827GR cells; DBG 6 nM, sample 1",67.58
same,Total Caspase+ cells,"HCC827GR cells; DBG 6 nM, sample 1",31.15
same,dead cells (multi-caspase assay),"HCC827GR cells; DBG 6 nM, sample 1",1.27
same,Caspase+ cells,"HCC827GR cells; DBG 6 nM, sample 2",7.88
same,Caspase+/dead cells,"HCC827GR cells; DBG 6 nM, sample 2",23.02
same,Live cells (multi-caspase assay),"HCC827GR cells; DBG 6 nM, sample 2",67.97
same,Total Caspase+ cells,"HCC827GR cells; DBG 6 nM, sample 2",30.90
same,dead cells (multi-caspase assay),"HCC827GR cells; DBG 6 nM, sample 2",1.13
same,Caspase+ cells,"HCC827GR cells; DBG 6 nM, sample 3",8.26
same,Caspase+/dead cells,"HCC827GR cells; DBG 6 nM, sample 3",23.08
same,Live cells (multi-caspase assay),"HCC827GR cells; DBG 6 nM, sample 3",67.82
same,Total Caspase+ cells,"HCC827GR cells; DBG 6 nM, sample 3",31.34
same,dead cells (multi-caspase assay),"HCC827GR cells; DBG 6 nM, sample 3",0.83
same,Caspase+ cells,"HCC827GR cells; DBG 12 nM, mean of samples 1-3",9.57
same,Caspase+/dead cells,"HCC827GR cells; DBG 12 nM, mean of samples 1-3",23.77
same,Live cells (multi-caspase assay),"HCC827GR cells; DBG 12 nM, mean of samples 1-3",66.05
same,Total Caspase+ cells,"HCC827GR cells; DBG 12 nM, mean of samples 1-3",33.34
same,dead cells (multi-caspase assay),"HCC827GR cells; DBG 12 nM, mean of samples 1-3",0.61
same,Caspase+ cells,"HCC827GR cells; DBG 12 nM, sample 1",11.11
same,Caspase+/dead cells,"HCC827GR cells; DBG 12 nM, sample 1",21.58
same,Live cells (multi-caspase assay),"HCC827GR cells; DBG 12 nM, sample 1",67.07
same,Total Caspase+ cells,"HCC827GR cells; DBG 12 nM, sample 1",32.69
same,dead cells (multi-caspase assay),"HCC827GR cells; DBG 12 nM, sample 1",0.24
same,Caspase+ cells,"HCC827GR cells; DBG 12 nM, sample 2",10.36
same,Caspase+/dead cells,"HCC827GR cells; DBG 12 nM, sample 2",24.35
same,Live cells (multi-caspase assay),"HCC827GR cells; DBG 12 nM, sample 2",65.05
same,Total Caspase+ cells,"HCC827GR cells; DBG 12 nM, sample 2",34.70
same,dead cells (multi-caspase assay),"HCC827GR cells; DBG 12 nM, sample 2",0.24
same,Caspase+ cells,"HCC827GR cells; DBG 12 nM, sample 3",7.24
same,Caspase+/dead cells,"HCC827GR cells; DBG 12 nM, sample 3",25.38
same,Live cells (multi-caspase assay),"HCC827GR cells; DBG 12 nM, sample 3",66.02
same,Total Caspase+ cells,"HCC827GR cells; DBG 12 nM, sample 3",32.62
same,dead cells (multi-caspase assay),"HCC827GR cells; DBG 12 nM, sample 3",1.36
same,"colony number, Control %",HCC827 cells [1]; DBG 3 nM,58.65%
same,"colony size, Control %",HCC827 cells [1]; DBG 3 nM,78.77%
same,"colony number, Control %",HCC827 cells [1]; DBG 6 nM,34.62%
same,"colony size, Control %",HCC827 cells [1]; DBG 6 nM,57.75%
same,"colony number, Control %",HCC827 cells [1]; DBG 12 nM,0.00%
same,"colony size, Control %",HCC827 cells [1]; DBG 12 nM,0.00%
same,G0/G1 distribution,"HCC827 cells [2]; DBG 3 nM, mean of 3 samples",61.33
same,G2/M distribution,"HCC827 cells [2]; DBG 3 nM, mean of 3 samples",31.20
same,S distribution,"HCC827 cells [2]; DBG 3 nM, mean of 3 samples",7.47
same,G0/G1 distribution,"HCC827 cells [2]; DBG 3 nM, sample 1",60.80
same,G2/M distribution,"HCC827 cells [2]; DBG 3 nM, sample 1",31.60
same,S distribution,"HCC827 cells [2]; DBG 3 nM, sample 1",7.60
same,G0/G1 distribution,"HCC827 cells [2]; DBG 3 nM, sample 2",61.70
same,G2/M distribution,"HCC827 cells [2]; DBG 3 nM, sample 2",31.40
same,S distribution,"HCC827 cells [2]; DBG 3 nM, sample 2",6.90
same,G0/G1 distribution,"HCC827 cells [2]; DBG 3 nM, sample 3",61.50
same,G2/M distribution,"HCC827 cells [2]; DBG 3 nM, sample 3",30.60
same,S distribution,"HCC827 cells [2]; DBG 3 nM, sample 3",7.90
same,G0/G1 distribution,"HCC827 cells [2]; DBG 6 nM, mean of 3 samples",64.27
same,G2/M distribution,"HCC827 cells [2]; DBG 6 nM, mean of 3 samples",28.30
same,S distribution,"HCC827 cells [2]; DBG 6 nM, mean of 3 samples",7.43
same,G0/G1 distribution,"HCC827 cells [2]; DBG 6 nM, sample 1",65.20
same,G2/M distribution,"HCC827 cells [2]; DBG 6 nM, sample 1",27.50
same,S distribution,"HCC827 cells [2]; DBG 6 nM, sample 1",7.30
same,G0/G1 distribution,"HCC827 cells [2]; DBG 6 nM, sample 2",63.60
same,G2/M distribution,"HCC827 cells [2]; DBG 6 nM, sample 2",28.30
same,S distribution,"HCC827 cells [2]; DBG 6 nM, sample 2",8.10
same,G0/G1 distribution,"HCC827 cells [2]; DBG 6 nM, sample 3",64.00
same,G2/M distribution,"HCC827 cells [2]; DBG 6 nM, sample 3",29.10
same,S distribution,"HCC827 cells [2]; DBG 6 nM, sample 3",6.90
same,G0/G1 distribution,"HCC827 cells [2]; DBG 12 nM, mean of 3 samples",74.37
same,G2/M distribution,"HCC827 cells [2]; DBG 12 nM, mean of 3 samples",19.80
same,S distribution,"HCC827 cells [2]; DBG 12 nM, mean of 3 samples",5.83
same,G0/G1 distribution,"HCC827 cells [2]; DBG 12 nM, sample 1",73.00
same,G2/M distribution,"HCC827 cells [2]; DBG 12 nM, sample 1",21.00
same,S distribution,"HCC827 cells [2]; DBG 12 nM, sample 1",6.00
same,G0/G1 distribution,"HCC827 cells [2]; DBG 12 nM, sample 2",75.10
same,G2/M distribution,"HCC827 cells [2]; DBG 12 nM, sample 2",19.40
same,S distribution,"HCC827 cells [2]; DBG 12 nM, sample 2",5.50
same,G0/G1 distribution,"HCC827 cells [2]; DBG 12 nM, sample 3",75.00
same,G2/M distribution,"HCC827 cells [2]; DBG 12 nM, sample 3",19.00
same,S distribution,"HCC827 cells [2]; DBG 12 nM, sample 3",6.00
